# Experimental data taken from ChEMBL document CHEMBL5303573, “Mapping human microbiome drug metabolism by gut bacteria and their genes” (Nature, 2019).
# Assay: The drug is tested on Bifidobacterium ruminantium strain: fecal isolate for biotransformation. The drug concentrations were measured before and after a 12-h incubation by liquid-chromatography-coupled mass spectrometry (LC–MS)
# Settings: 2 µM
row,SMILES,Bacterial Biotransformation
1,O=C1[C@H](CC[C@H](O)c2ccc(F)cc2)[C@@H](c2ccc(O)cc2)N1c1ccc(F)cc1 [EZETIMIBE],Compound NOT metabolized
2,COC(=O)C1=C(C)NC(C)=C(C(=O)OC(C)C)C1c1cccc2nonc12 (configuration not stated) [ISRADIPINE],Compound NOT metabolized
3,CO[C@]12C[C@@H](COC(=O)c3cncc(Br)c3)CN(C)[C@@H]1Cc1cn(C)c3cccc2c13 [NICERGOLINE],Compound NOT metabolized

# Settings: akkermansia muciniphila, 12 h, 2 µM
# Description: The drug is tested on Akkermansia muciniphila strain: ATCC BAA-835 for biotransformation. The drug concentrations were measured before and after a 12-h incubation by liquid-chromatography-coupled mass spectrometry (LC–MS)
row,SMILES,Bacterial Biotransformation
1,O=C1[C@H](CC[C@H](O)c2ccc(F)cc2)[C@@H](c2ccc(O)cc2)N1c1ccc(F)cc1 [EZETIMIBE],Compound NOT metabolized
2,COC(=O)C1=C(C)NC(C)=C(C(=O)OC(C)C)C1c1cccc2nonc12 (configuration not stated) [ISRADIPINE],Compound NOT metabolized
3,CO[C@]12C[C@@H](COC(=O)c3cncc(Br)c3)CN(C)[C@@H]1Cc1cn(C)c3cccc2c13 [NICERGOLINE],Compound NOT metabolized

# Assay: The drug is tested on Eubacterium ventriosum strain: ATCC27560 for biotransformation. The drug concentrations were measured before and after a 12-h incubation by liquid-chromatography-coupled mass spectrometry (LC–MS)
# Type: ADME
# Parameters: dose 2 uM, timepoint 0 vs 12 hours
# Settings: 2 µM
row,SMILES,Bacterial Biotransformation
1,O=C1[C@H](CC[C@H](O)c2ccc(F)cc2)[C@@H](c2ccc(O)cc2)N1c1ccc(F)cc1 [EZETIMIBE],Compound metabolized
2,COC(=O)C1=C(C)NC(C)=C(C(=O)OC(C)C)C1c1cccc2nonc12 (configuration not stated) [ISRADIPINE],Compound NOT metabolized
3,CO[C@]12C[C@@H](COC(=O)c3cncc(Br)c3)CN(C)[C@@H]1Cc1cn(C)c3cccc2c13 [NICERGOLINE],Compound NOT metabolized

# Settings: bacteroides thetaiotaomicron, 12 h, 2 µM
# Description: The drug is tested on Bacteroides thetaiotaomicron strain: 3731 for biotransformation. The drug concentrations were measured before and after a 12-h incubation by liquid-chromatography-coupled mass spectrometry (LC–MS)
row,SMILES,Bacterial Biotransformation
1,O=C1[C@H](CC[C@H](O)c2ccc(F)cc2)[C@@H](c2ccc(O)cc2)N1c1ccc(F)cc1 [EZETIMIBE],Compound NOT metabolized
2,COC(=O)C1=C(C)NC(C)=C(C(=O)OC(C)C)C1c1cccc2nonc12 (configuration not stated) [ISRADIPINE],Compound NOT metabolized
3,CO[C@]12C[C@@H](COC(=O)c3cncc(Br)c3)CN(C)[C@@H]1Cc1cn(C)c3cccc2c13 [NICERGOLINE],Compound NOT metabolized

# Assay: The drug is tested on Bacteroides dorei strain: DSM17855 for biotransformation. The drug concentrations were measured before and after a 12-h incubation by liquid-chromatography-coupled mass spectrometry (LC–MS)
# Settings: phocaeicola dorei, 2 µM
row,SMILES,Bacterial Biotransformation
1,O=C1[C@H](CC[C@H](O)c2ccc(F)cc2)[C@@H](c2ccc(O)cc2)N1c1ccc(F)cc1 [EZETIMIBE],Compound NOT metabolized
2,COC(=O)C1=C(C)NC(C)=C(C(=O)OC(C)C)C1c1cccc2nonc12 (configuration not stated) [ISRADIPINE],Compound NOT metabolized
3,CO[C@]12C[C@@H](COC(=O)c3cncc(Br)c3)CN(C)[C@@H]1Cc1cn(C)c3cccc2c13 [NICERGOLINE],Compound metabolized

# Settings: roseburia intestinalis, 12 h, 2 µM
# Description: The drug is tested on Roseburia intestinalis strain: L1-82 for biotransformation. The drug concentrations were measured before and after a 12-h incubation by liquid-chromatography-coupled mass spectrometry (LC–MS)
row,SMILES,Bacterial Biotransformation
1,O=C1[C@H](CC[C@H](O)c2ccc(F)cc2)[C@@H](c2ccc(O)cc2)N1c1ccc(F)cc1 [EZETIMIBE],Compound NOT metabolized
2,COC(=O)C1=C(C)NC(C)=C(C(=O)OC(C)C)C1c1cccc2nonc12 (configuration not stated) [ISRADIPINE],Compound NOT metabolized
3,CO[C@]12C[C@@H](COC(=O)c3cncc(Br)c3)CN(C)[C@@H]1Cc1cn(C)c3cccc2c13 [NICERGOLINE],Compound NOT metabolized

# Settings: bacteroides fragilis, 12 h, 2 µM
# Description: The drug is tested on Bacteroides fragilis strain: NCTC 9343 for biotransformation. The drug concentrations were measured before and after a 12-h incubation by liquid-chromatography-coupled mass spectrometry (LC–MS)
row,SMILES,Bacterial Biotransformation
1,O=C1[C@H](CC[C@H](O)c2ccc(F)cc2)[C@@H](c2ccc(O)cc2)N1c1ccc(F)cc1 [EZETIMIBE],Compound NOT metabolized
2,COC(=O)C1=C(C)NC(C)=C(C(=O)OC(C)C)C1c1cccc2nonc12 (configuration not stated) [ISRADIPINE],Compound NOT metabolized
3,CO[C@]12C[C@@H](COC(=O)c3cncc(Br)c3)CN(C)[C@@H]1Cc1cn(C)c3cccc2c13 [NICERGOLINE],Compound NOT metabolized

# Assay: The drug is tested on Eubacterium hallii strain: DSM3353 for biotransformation. The drug concentrations were measured before and after a 12-h incubation by liquid-chromatography-coupled mass spectrometry (LC–MS)
# Settings: anaerobutyricum hallii, 2 µM
row,SMILES,Bacterial Biotransformation
1,O=C1[C@H](CC[C@H](O)c2ccc(F)cc2)[C@@H](c2ccc(O)cc2)N1c1ccc(F)cc1 [EZETIMIBE],Compound NOT metabolized
2,COC(=O)C1=C(C)NC(C)=C(C(=O)OC(C)C)C1c1cccc2nonc12 (configuration not stated) [ISRADIPINE],Compound NOT metabolized
3,CO[C@]12C[C@@H](COC(=O)c3cncc(Br)c3)CN(C)[C@@H]1Cc1cn(C)c3cccc2c13 [NICERGOLINE],Compound NOT metabolized

# Assay: The drug is tested on Bifidobacterium longum subsp. Infantis strain: CCUG52486 for biotransformation. The drug concentrations were measured before and after a 12-h incubation by liquid-chromatography-coupled mass spectrometry (LC–MS)
# Settings: 2 µM
row,SMILES,Bacterial Biotransformation
1,O=C1[C@H](CC[C@H](O)c2ccc(F)cc2)[C@@H](c2ccc(O)cc2)N1c1ccc(F)cc1 [EZETIMIBE],Compound NOT metabolized
2,COC(=O)C1=C(C)NC(C)=C(C(=O)OC(C)C)C1c1cccc2nonc12 (configuration not stated) [ISRADIPINE],Compound NOT metabolized
3,CO[C@]12C[C@@H](COC(=O)c3cncc(Br)c3)CN(C)[C@@H]1Cc1cn(C)c3cccc2c13 [NICERGOLINE],Compound NOT metabolized

# Assay: The drug is tested on Bacteroides xylanisolvens strain: DSM18836 for biotransformation. The drug concentrations were measured before and after a 12-h incubation by liquid-chromatography-coupled mass spectrometry (LC–MS)
# Settings: 2 µM
row,SMILES,Bacterial Biotransformation
1,O=C1[C@H](CC[C@H](O)c2ccc(F)cc2)[C@@H](c2ccc(O)cc2)N1c1ccc(F)cc1 [EZETIMIBE],Compound NOT metabolized
2,COC(=O)C1=C(C)NC(C)=C(C(=O)OC(C)C)C1c1cccc2nonc12 (configuration not stated) [ISRADIPINE],Compound NOT metabolized
3,CO[C@]12C[C@@H](COC(=O)c3cncc(Br)c3)CN(C)[C@@H]1Cc1cn(C)c3cccc2c13 [NICERGOLINE],Compound NOT metabolized

# Assay: The drug is tested on Providencia stuartii strain: ATCC25827 for biotransformation. The drug concentrations were measured before and after a 12-h incubation by liquid-chromatography-coupled mass spectrometry (LC–MS)
# Settings: 2 µM
row,SMILES,Bacterial Biotransformation
1,O=C1[C@H](CC[C@H](O)c2ccc(F)cc2)[C@@H](c2ccc(O)cc2)N1c1ccc(F)cc1 [EZETIMIBE],Compound NOT metabolized
2,COC(=O)C1=C(C)NC(C)=C(C(=O)OC(C)C)C1c1cccc2nonc12 (configuration not stated) [ISRADIPINE],Compound NOT metabolized
3,CO[C@]12C[C@@H](COC(=O)c3cncc(Br)c3)CN(C)[C@@H]1Cc1cn(C)c3cccc2c13 [NICERGOLINE],Compound NOT metabolized

# Assay: The drug is tested on Clostridium ramosum strain: DSM1402 for biotransformation. The drug concentrations were measured before and after a 12-h incubation by liquid-chromatography-coupled mass spectrometry (LC–MS)
# Settings: thomasclavelia ramosa, 2 µM
row,SMILES,Bacterial Biotransformation
1,O=C1[C@H](CC[C@H](O)c2ccc(F)cc2)[C@@H](c2ccc(O)cc2)N1c1ccc(F)cc1 [EZETIMIBE],Compound NOT metabolized
2,COC(=O)C1=C(C)NC(C)=C(C(=O)OC(C)C)C1c1cccc2nonc12 (configuration not stated) [ISRADIPINE],Compound NOT metabolized
3,CO[C@]12C[C@@H](COC(=O)c3cncc(Br)c3)CN(C)[C@@H]1Cc1cn(C)c3cccc2c13 [NICERGOLINE],Compound NOT metabolized

# Assay: The drug is tested on Anaerotruncus colihominis strain: DSM17241 for biotransformation. The drug concentrations were measured before and after a 12-h incubation by liquid-chromatography-coupled mass spectrometry (LC–MS)
# Settings: 2 µM
row,SMILES,Bacterial Biotransformation
1,O=C1[C@H](CC[C@H](O)c2ccc(F)cc2)[C@@H](c2ccc(O)cc2)N1c1ccc(F)cc1 [EZETIMIBE],Compound NOT metabolized
2,COC(=O)C1=C(C)NC(C)=C(C(=O)OC(C)C)C1c1cccc2nonc12 (configuration not stated) [ISRADIPINE],Compound NOT metabolized
3,CO[C@]12C[C@@H](COC(=O)c3cncc(Br)c3)CN(C)[C@@H]1Cc1cn(C)c3cccc2c13 [NICERGOLINE],Compound NOT metabolized

# Settings: limosilactobacillus reuteri cf48-3a, 12 h, 2 µM
# Description: The drug is tested on Lactobacillus reuteri CF48-3A strain: BEI HM-102 for biotransformation. The drug concentrations were measured before and after a 12-h incubation by liquid-chromatography-coupled mass spectrometry (LC–MS)
row,SMILES,Bacterial Biotransformation
1,O=C1[C@H](CC[C@H](O)c2ccc(F)cc2)[C@@H](c2ccc(O)cc2)N1c1ccc(F)cc1 [EZETIMIBE],Compound NOT metabolized
2,COC(=O)C1=C(C)NC(C)=C(C(=O)OC(C)C)C1c1cccc2nonc12 (configuration not stated) [ISRADIPINE],Compound NOT metabolized
3,CO[C@]12C[C@@H](COC(=O)c3cncc(Br)c3)CN(C)[C@@H]1Cc1cn(C)c3cccc2c13 [NICERGOLINE],Compound NOT metabolized

# Assay: The drug is tested on Bacteroides finegoldii strain: DSM17565 for biotransformation. The drug concentrations were measured before and after a 12-h incubation by liquid-chromatography-coupled mass spectrometry (LC–MS)
# Settings: 2 µM
row,SMILES,Bacterial Biotransformation
1,O=C1[C@H](CC[C@H](O)c2ccc(F)cc2)[C@@H](c2ccc(O)cc2)N1c1ccc(F)cc1 [EZETIMIBE],Compound NOT metabolized
2,COC(=O)C1=C(C)NC(C)=C(C(=O)OC(C)C)C1c1cccc2nonc12 (configuration not stated) [ISRADIPINE],Compound NOT metabolized
3,CO[C@]12C[C@@H](COC(=O)c3cncc(Br)c3)CN(C)[C@@H]1Cc1cn(C)c3cccc2c13 [NICERGOLINE],Compound NOT metabolized

# Assay: The drug is tested on Bacteroides sp. WH2 strain: WH2 for biotransformation. The drug concentrations were measured before and after a 12-h incubation by liquid-chromatography-coupled mass spectrometry (LC–MS)
# Settings: bacteroides sp. wh2, 12 h, 2 µM
row,SMILES,Bacterial Biotransformation
1,O=C1[C@H](CC[C@H](O)c2ccc(F)cc2)[C@@H](c2ccc(O)cc2)N1c1ccc(F)cc1 [EZETIMIBE],Compound NOT metabolized
2,CO[C@]12C[C@@H](COC(=O)c3cncc(Br)c3)CN(C)[C@@H]1Cc1cn(C)c3cccc2c13 [NICERGOLINE],Compound NOT metabolized

# Settings: bacteroides intestinalis, 12 h, 2 µM
# Description: The drug is tested on Bacteroides intestinalis strain: DSM17393 for biotransformation. The drug concentrations were measured before and after a 12-h incubation by liquid-chromatography-coupled mass spectrometry (LC–MS)
row,SMILES,Bacterial Biotransformation
1,COC(=O)C1=C(C)NC(C)=C(C(=O)OC(C)C)C1c1cccc2nonc12 (configuration not stated) [ISRADIPINE],Compound NOT metabolized
2,CO[C@]12C[C@@H](COC(=O)c3cncc(Br)c3)CN(C)[C@@H]1Cc1cn(C)c3cccc2c13 [NICERGOLINE],Compound NOT metabolized

# Assay: The drug is tested on Collinsella aerofaciens strain: ATCC25986 for biotransformation. The drug concentrations were measured before and after a 12-h incubation by liquid-chromatography-coupled mass spectrometry (LC–MS)
# Settings: 2 µM
row,SMILES,Bacterial Biotransformation
1,O=C1[C@H](CC[C@H](O)c2ccc(F)cc2)[C@@H](c2ccc(O)cc2)N1c1ccc(F)cc1 [EZETIMIBE],Compound NOT metabolized
2,COC(=O)C1=C(C)NC(C)=C(C(=O)OC(C)C)C1c1cccc2nonc12 (configuration not stated) [ISRADIPINE],Compound NOT metabolized

# Assay: The drug is tested on Ruminococcus gnavus strain: ATCC29149 for biotransformation. The drug concentrations were measured before and after a 12-h incubation by liquid-chromatography-coupled mass spectrometry (LC–MS)
# Settings: mediterraneibacter gnavus, 2 µM
row,SMILES,Bacterial Biotransformation
1,O=C1[C@H](CC[C@H](O)c2ccc(F)cc2)[C@@H](c2ccc(O)cc2)N1c1ccc(F)cc1 [EZETIMIBE],Compound NOT metabolized
2,COC(=O)C1=C(C)NC(C)=C(C(=O)OC(C)C)C1c1cccc2nonc12 (configuration not stated) [ISRADIPINE],Compound NOT metabolized
3,CO[C@]12C[C@@H](COC(=O)c3cncc(Br)c3)CN(C)[C@@H]1Cc1cn(C)c3cccc2c13 [NICERGOLINE],Compound NOT metabolized

# Assay: The drug is tested on Bacteroides fragilis strain: HMW615 for biotransformation. The drug concentrations were measured before and after a 12-h incubation by liquid-chromatography-coupled mass spectrometry (LC–MS)
# Settings: 2 µM
row,SMILES,Bacterial Biotransformation
1,O=C1[C@H](CC[C@H](O)c2ccc(F)cc2)[C@@H](c2ccc(O)cc2)N1c1ccc(F)cc1 [EZETIMIBE],Compound NOT metabolized
2,COC(=O)C1=C(C)NC(C)=C(C(=O)OC(C)C)C1c1cccc2nonc12 (configuration not stated) [ISRADIPINE],Compound NOT metabolized
3,CO[C@]12C[C@@H](COC(=O)c3cncc(Br)c3)CN(C)[C@@H]1Cc1cn(C)c3cccc2c13 [NICERGOLINE],Compound NOT metabolized
